We go through two compounds from publication PMC6131351, “Pharmacological difference between degrader and inhibitor against oncogenic BCR-ABL kinase” (Scientific Reports, 2018).

One test deals with KU812 cells. The experiment in a line: WST cell growth inhibition, KU812. The note with it: Homo sapiens, 48 h, WST assay, means ± SD (n = 3). The test is classed as cell-based. Here is the method:
(§1) Human CML (K562 and KU812 cells), acute T-lymphoblast leukemia (MOLT-4 cell), and T cell leukemia (Jurkat cell) were cultured in Roswell Park Memorial Institute-1640 medium (Sigma-Aldrich, St. Louis, MO, USA) containing 10% fetal bovine serum (Thermo Fisher Scientific, Waltham, MA, USA) and 50 μg/ml kanamycin (Sigma-Aldrich). KU812 cells were obtained from Japanese Collection of Research Bioresources (JCRB, Osaka, Japan) Cell Bank (JCRB0104)[58].
(§2) Cell viability was determined using water-soluble tetrazolium WST-8 (4-[3-(2-methoxy-4-nitrophenyl)-2-(4-nitrophenyl)-2H-5-tetrazolio]-1,3-benzene disulfonate) for the spectrophotometric assay and conducted according to the manufacturer’s instructions (Dojindo, Tokyo, Japan). Cells were seeded at a concentration of 5 × 10^3 cells per well in a 96-well culture plate, and treated with the indicated compounds for 48 h. The WST-8 reagent was added, and the cells were incubated for 0.5 h at 37 °C in a humidified atmosphere of 5% CO2. The absorbance at 450 nm of the medium was measured using the EnVision Multilabel Plate Reader.

The subject of the next test is MOLT-4 cells. In words: WST cell growth inhibition, MOLT-4 (BCR-ABL negative). The test is classed as cell-based. The note with it: Homo sapiens, MOLT4 cells, 48 h, WST assay, means ± SD (n = 3).
The target in a further test is T1, cIAP2 (BIR3) (Homo sapiens, UniProt Q13489).
T1 construct: cIAP2 (BIR3, Gln238-Ser349) proteins were expressed in E. coli; made in house; host or cells: E. coli
The experiment in a line: TR-FRET IAP/Smac peptide interaction assay, cIAP2. The settings on record: FITC-Smac probe, read-out: Binding affinity IC50 cIAP2. Here is the method:
The TR-FRET assay was carried out using 384-well white flat-bottom plates (Greiner Bio-One) and the signal was measured using an EnVision Multilabel Plate Reader (PerkinElmer, Waltham, MA, USA). The solution in each well was excited with a laser (λ = 337 nm) reflected by a dichroic mirror (D400/D505 (Perkin Elmer) and fluorescence from terbium (Tb) and BODIPY or FITC was detected through two emission filters (CFP 486 (Perkin Elmer) for Tb and Emission 515 (Perkin Elmer) for BODIPY and FITC). The assay buffer used in this study was composed of 50 mM HEPES (pH 7.2–7.5), 10 mM MgCl2, 1 mM EGTA, 0.1 mM DTT and 0.01% (v/v) Brij^(R) 35. All assays were carried out at room temperature in triplicate or quadruplicate formats.
The half maximal inhibitory concentration (IC50) of test compounds was calculated by fitting the data with the logistic equation using GraphPad Prism 5 (GraphPad Software, Inc., La Jolla, CA, USA) or XLfit (IDBS, Guildford, UK).
His-IAP proteins (XIAP, cIAP1 or cIAP2), FITC-Smac, Tb-SA and the biotinylated anti-His antibody (Life Technologies) were mixed in the assay buffer and incubated for over 1 h at room temperature before addition to the assay plate. […] After 1 h incubation at room temperature, the TR-FRET signal was measured using the EnVision Multilabel Plate Reader. […]
(In TR-FRET formats the signal depends on donor and acceptor labels being close together.)

The next test concerns the target T2, BCR-ABL protein (Homo sapiens, UniProt P00519+P11274).
T2 construct: examined for their activity to degrade BCR-ABL in K562 cells for 6 h; BCR (fusion partner, P11274, N-terminal part); endogenous in cells; host or cells: K562
In words: Protein knockdown by western blot in K562 cells. The test is classed as cell-based. The settings on record: 6 h. Here is the method:
(§3) Cells were collected and lysed in a lysis buffer (0.5% Triton X-100, 0.01 M Tris-HCl (pH 7.5), 0.15 M NaCl, Complete Mini protease inhibitor cocktail (Roche Applied Science, Indianapolis, IL, USA) and PhosStop phosphatase inhibitor cocktail (Roche Applied Science)). Protein concentrations were measured by the BCA method (Thermo Fisher Scientific) and an equal amount of protein lysate was separated by SDS-PAGE, transferred to polyvinylidene difluoride membranes (Merck Millipore) and analyzed by western blot using an appropriate antibody. The immunoreactive proteins were visualized using Clarity Western ECL substrate (Bio-Rad, Hercules, CA, USA) and their light emission was quantified with a LAS-3000 lumino-image analyzer (Fuji, Tokyo, Japan).

The next test relates to K562 cells. The experiment in a line: WST cell growth inhibition, K562. The test is classed as cell-based, Human. The settings on record: 48 h, WST assay; for IC50: Homo sapiens, means ± SD (n = 3). As to the method:
as §1, §2

For test [1], the system named is phosphorylation of BCR-ABL, STAT5 and CrkL. In words: Downstream kinase signaling (phosphorylation) by western blot in K562 cells. The test is classed as cell-based, Human. Here is the method:
as §3, with “Japan). The following antibodies were used: anti-cAbl rabbit polyclonal antibody (pAb) (#2862), anti-XIAP rabbit pAb (#2042), anti-phospho-cAbl rabbit pAb (#3009), anti-STAT5 rabbit pAb (#9363), anti-phospho-STAT5 rabbit pAb (#9359), anti-CrkL mouse monoclonal antibody (mAb) (#3182) and anti-phospho-CrkL rabbit pAb (#3181), anti-PARP rabbit pAb (#9532), and anti-cleaved Caspase 3 rabbit pAb (#9664) (Cell Signaling Technology, Danvers, MA, USA); anti-β-tubulin (ab6046) rabbit pAb (Abcam, Cambridge, UK) and anti-GAPDH rabbit pAb (sc-25778 HRP) (Santa Cruz, Dallas, TX, USA); anti-cIAP1 goat pAb (AF8181) (R&D systems).” for “Japan).”
Cells were seeded at a concentration of 2 × 10^6 cells per 10-cm tissue culture dish and treated with the indicated compounds for the indicated times. Then, the cells were washed three times to remove the compounds, and incubated in drug-free medium for the indicated times.
Background: In western blotting, separated proteins are transferred to a membrane and probed.

The mark [2] stands for this setting: K562, 50 times IC50 for 12 h (time 0).

Bounds are passed on as bounds.

T2 sequence (P11274+P00519 fused): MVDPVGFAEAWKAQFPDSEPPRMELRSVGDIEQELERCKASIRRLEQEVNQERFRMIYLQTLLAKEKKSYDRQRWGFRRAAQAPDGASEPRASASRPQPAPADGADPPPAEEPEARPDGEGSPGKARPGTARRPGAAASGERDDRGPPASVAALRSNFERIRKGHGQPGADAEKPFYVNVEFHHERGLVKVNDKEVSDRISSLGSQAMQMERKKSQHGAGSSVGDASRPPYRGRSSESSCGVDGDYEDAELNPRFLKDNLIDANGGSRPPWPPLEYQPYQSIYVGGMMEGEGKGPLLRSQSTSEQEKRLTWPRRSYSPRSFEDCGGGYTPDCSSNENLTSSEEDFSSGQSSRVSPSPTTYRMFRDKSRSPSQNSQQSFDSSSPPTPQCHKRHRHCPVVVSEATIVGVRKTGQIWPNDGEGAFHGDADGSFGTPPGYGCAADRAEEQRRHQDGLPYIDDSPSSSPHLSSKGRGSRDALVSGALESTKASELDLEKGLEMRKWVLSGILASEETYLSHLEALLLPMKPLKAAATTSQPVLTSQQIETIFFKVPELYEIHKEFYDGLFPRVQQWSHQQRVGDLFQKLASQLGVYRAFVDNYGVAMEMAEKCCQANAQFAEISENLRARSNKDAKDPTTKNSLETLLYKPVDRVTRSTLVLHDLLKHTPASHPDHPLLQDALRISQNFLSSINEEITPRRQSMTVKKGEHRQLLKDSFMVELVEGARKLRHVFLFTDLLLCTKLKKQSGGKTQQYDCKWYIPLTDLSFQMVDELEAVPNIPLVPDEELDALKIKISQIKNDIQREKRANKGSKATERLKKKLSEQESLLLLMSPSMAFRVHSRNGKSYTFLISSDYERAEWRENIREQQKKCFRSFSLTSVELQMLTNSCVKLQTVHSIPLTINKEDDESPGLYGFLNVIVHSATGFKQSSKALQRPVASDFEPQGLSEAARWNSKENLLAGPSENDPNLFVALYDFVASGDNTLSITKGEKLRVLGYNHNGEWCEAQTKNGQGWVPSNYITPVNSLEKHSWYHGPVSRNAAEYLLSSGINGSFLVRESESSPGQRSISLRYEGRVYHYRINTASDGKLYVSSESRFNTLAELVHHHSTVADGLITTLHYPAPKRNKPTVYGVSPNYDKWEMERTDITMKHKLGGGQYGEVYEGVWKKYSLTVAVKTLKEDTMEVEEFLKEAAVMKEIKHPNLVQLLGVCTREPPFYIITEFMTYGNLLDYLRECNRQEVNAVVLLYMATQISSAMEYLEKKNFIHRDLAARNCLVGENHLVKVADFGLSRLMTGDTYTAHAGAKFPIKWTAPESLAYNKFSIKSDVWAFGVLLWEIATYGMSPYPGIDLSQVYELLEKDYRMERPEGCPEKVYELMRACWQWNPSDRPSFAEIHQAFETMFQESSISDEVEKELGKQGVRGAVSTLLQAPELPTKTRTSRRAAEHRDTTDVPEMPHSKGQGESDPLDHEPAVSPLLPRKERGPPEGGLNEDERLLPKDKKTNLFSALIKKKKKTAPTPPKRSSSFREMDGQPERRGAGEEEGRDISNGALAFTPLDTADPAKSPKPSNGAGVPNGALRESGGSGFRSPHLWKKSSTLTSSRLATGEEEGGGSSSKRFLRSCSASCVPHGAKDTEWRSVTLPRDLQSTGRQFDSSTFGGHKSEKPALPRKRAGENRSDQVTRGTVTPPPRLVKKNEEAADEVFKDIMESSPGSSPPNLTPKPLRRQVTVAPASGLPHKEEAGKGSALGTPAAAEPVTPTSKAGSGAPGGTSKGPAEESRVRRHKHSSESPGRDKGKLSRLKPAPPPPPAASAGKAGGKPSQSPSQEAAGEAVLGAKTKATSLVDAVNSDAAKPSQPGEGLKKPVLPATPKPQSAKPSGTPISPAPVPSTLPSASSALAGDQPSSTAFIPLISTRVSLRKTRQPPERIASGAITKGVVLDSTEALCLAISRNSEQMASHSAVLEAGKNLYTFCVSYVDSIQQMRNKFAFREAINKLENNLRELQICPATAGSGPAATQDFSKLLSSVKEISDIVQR
T1 sequence (Q13489 238-349): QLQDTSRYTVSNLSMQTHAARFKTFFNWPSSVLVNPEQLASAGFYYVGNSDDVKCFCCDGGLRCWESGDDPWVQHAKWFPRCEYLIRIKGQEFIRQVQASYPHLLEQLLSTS

With `CN[C@@H](C)C(=O)N[C@H](C(=O)N1CCC[C@H]1c1nc(C(=O)c2cccc(OCCOCCOCCOCC(=O)N3CCN(c4cc(Nc5ncc(C(=O)Nc6c(C)cccc6Cl)s5)nc(C)n4)CC3)c2)cs1)C1CCCCC1` [DAS-IAP], the 50% inhibitory concentration (IC50) – broadly, the concentration needed to halve the response being measured – in the test on KU812 cells came to 8.97 ± 0.99 nM; in the test on MOLT-4 cells it was 1720 ± 64.9 nM; at cIAP2 (BIR3) it was 12 nM; in the test with K562 cells, 8.6 nM. For the same compound, the “BCR-ABL, cIAP1 and XIAP protein levels” value at BCR-ABL protein is listed as “reduced”. Moreover, the “knockdown activity against the BCR-ABL protein” value at BCR-ABL protein (1-300 nM) is “effective knockdown activity”. Further, the “suppression of K562 cell growth (comparison)” value in the test on K562 cells is given as “more potent suppression of K562 cell growth than DAS-VHL”. In addition, the “phosphorylation of BCR-ABL, STAT5 and CrkL” value in test [1] (setting [2]) is “inhibited”; in test [1] (K562 cells, 6 h), “suppressed”. In addition, the “phosphorylated BCR-ABL, STAT5 and CrkL after drug removal” value in test [1] (K562, 50 times IC50 for 12 h, 48 and 72 h after drug removal) was “remained significantly diminished”.

Regarding `CN[C@@H](C)C(=O)N(C)[C@H](C(=O)N1CCC[C@H]1c1nc(C(=O)c2cccc(OCCOCCOCCOCC(=O)N3CCN(c4cc(Nc5ncc(C(=O)Nc6c(C)cccc6Cl)s5)nc(C)n4)CC3)c2)cs1)C1CCCCC1` [DAS-meIAP], the half-maximal inhibitory concentration (IC50) with KU812 cells was 3.57 ± 0.22 nM; with MOLT-4 cells, 1900 ± 108 nM; at cIAP2 (BIR3) it was over 1000 nM; with K562 cells, 3.93 nM. For the same compound, the “BCR-ABL, cIAP1 and XIAP protein levels” value at BCR-ABL protein is “did not reduce”. The “phosphorylation of BCR-ABL, STAT5 and CrkL” value in test [1] (setting [2]) was “inhibited”; in test [1] (K562 cells, 6 h) it was “suppressed”.
